{"source": "patent US20020026053A1", "about": "“Novel 3-(substituted) -2- indolinones compounds and use thereof as inhibitors of protein kinase activity” (priority 1997, published 2002)", "target": "T1, Met receptor (EGFR/Met chimeric cells, EMR) (Homo sapiens, UniProt P08581)", "T1 construct": "expressed in transfected cells; the other entry of the earlier key: EGFR (P00533, Epidermal growth factor receptor)", "T1 sequence (P08581 with tags, fused parts or gaps)": "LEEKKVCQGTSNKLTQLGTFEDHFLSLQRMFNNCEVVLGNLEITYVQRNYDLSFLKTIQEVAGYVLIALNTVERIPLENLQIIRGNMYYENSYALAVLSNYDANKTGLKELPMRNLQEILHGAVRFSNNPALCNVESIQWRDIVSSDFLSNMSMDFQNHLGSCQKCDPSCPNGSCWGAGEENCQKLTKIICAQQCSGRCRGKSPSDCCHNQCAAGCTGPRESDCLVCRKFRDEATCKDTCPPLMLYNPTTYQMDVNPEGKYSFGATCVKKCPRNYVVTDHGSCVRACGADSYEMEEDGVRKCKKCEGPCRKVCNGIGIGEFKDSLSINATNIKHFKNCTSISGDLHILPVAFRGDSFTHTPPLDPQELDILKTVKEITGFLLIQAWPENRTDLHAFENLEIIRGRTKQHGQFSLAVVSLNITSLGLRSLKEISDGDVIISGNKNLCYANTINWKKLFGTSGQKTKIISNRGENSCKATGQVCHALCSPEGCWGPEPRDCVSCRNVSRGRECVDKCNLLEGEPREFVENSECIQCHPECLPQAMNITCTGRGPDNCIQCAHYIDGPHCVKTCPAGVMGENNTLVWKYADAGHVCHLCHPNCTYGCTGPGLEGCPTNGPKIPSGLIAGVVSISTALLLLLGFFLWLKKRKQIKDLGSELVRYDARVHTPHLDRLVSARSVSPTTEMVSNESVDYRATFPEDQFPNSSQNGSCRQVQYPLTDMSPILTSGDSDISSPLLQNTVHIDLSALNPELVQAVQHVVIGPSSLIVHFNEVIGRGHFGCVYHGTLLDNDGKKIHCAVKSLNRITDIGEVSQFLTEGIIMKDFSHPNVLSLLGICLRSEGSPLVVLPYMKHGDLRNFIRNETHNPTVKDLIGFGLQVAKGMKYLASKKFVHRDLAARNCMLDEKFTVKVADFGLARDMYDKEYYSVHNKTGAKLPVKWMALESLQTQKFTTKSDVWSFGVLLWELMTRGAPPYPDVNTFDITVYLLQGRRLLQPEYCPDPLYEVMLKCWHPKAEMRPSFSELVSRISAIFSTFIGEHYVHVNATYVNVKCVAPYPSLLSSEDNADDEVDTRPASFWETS", "assay": "Met Autophosphorylation Assay", "format": "biochemical", "outline": "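Met phosphorylation was measured by capture ELISA. Lysates (90 μg/100 μl, HNTG plus 1 mM PMSF) from transiently transfected EGFR/Met chimera (EMR) cells were bound for 60 min at room temperature to wells holding rabbit anti-Met (C-28) on goat anti-rabbit coat. Phosphotyrosine was the read-out.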", "note": "Where “and” joins values, the source holds several entries; their conditions need not be identical. Equal values may be shown once. Read-outs that look alike come from different tables or passages of the source.", "data": [{"smiles": "Cc1c(Br)cc(Br)c2c1C(=Cc1ccc(N3CCOCC3)cc1)C(=O)N2", "note": "[10725/H08]", "values": [{"measurement": "Met Kinase % Inhibition (P.130)", "value": 5.7, "unit": "%"}]}, {"smiles": "COC(=O)Cc1c(Cl)[nH]c(C=C2C(=O)Nc3c(Br)cc(Br)c(C)c32)c1C(=O)OC", "note": "[10725/H09]", "values": [{"measurement": "Met Kinase % Inhibition (P.130)", "value": 41.6, "unit": "%"}]}, {"smiles": "Cc1c(Br)cc(Br)c2c1C(=Cc1c(Br)cnn1-c1ccc(Cl)cc1)C(=O)N2", "note": "[10725/H10]", "values": [{"measurement": "Met Kinase % Inhibition (P.130)", "value": 21.8, "unit": "%"}]}, {"smiles": "Cc1c(Br)cc(Br)c2c1C(=Cc1c[nH]cn1)C(=O)N2", "note": "[10725/H11]", "values": [{"measurement": "Met Kinase % Inhibition (P.130)", "value": 17.8, "unit": "%"}]}, {"smiles": "Cc1c(Br)cc(Br)c2c1C(=Cc1ccccc1[N+](=O)[O-])C(=O)N2", "note": "[10726/H02]", "values": [{"measurement": "Met Kinase % Inhibition (P.130)", "value": 66.6, "unit": "%"}]}, {"smiles": "CCOC(=O)c1[nH]c(C=C2C(=O)Nc3c(Br)cc(Br)c(C)c32)c(C(=O)OC)c1C", "note": "[10726/H03]", "values": [{"measurement": "Met Kinase % Inhibition (P.130)", "value": 44.8, "unit": "%"}]}, {"smiles": "Cc1cc(C=C2C(=O)Nc3c(Br)cc(Br)c(C)c32)cc(C(C)(C)C)c1O", "note": "[10726/H04]", "values": [{"measurement": "Met Kinase % Inhibition (P.130)", "value": 77.6, "unit": "%"}]}, {"smiles": "COc1cccc(C=C2C(=O)Nc3ccc(S(=O)(=O)N4CCOCC4)cc32)c1", "note": "[10736/F10]", "values": [{"measurement": "Met Kinase % Inhibition (P.130)", "value": 65.3, "unit": "%"}]}, {"smiles": "O=C1Nc2ccc(S(=O)(=O)N3CCOCC3)cc2C1=Cc1ccccc1Cl", "note": "[10736/F11]", "values": [{"measurement": "Met Kinase % Inhibition (P.130)", "value": 25.2, "unit": "%"}]}, {"smiles": "O=C1Nc2ccc(CCCl)cc2C1=Cc1ccc(Cl)cc1", "note": "[10736/G02]", "values": [{"measurement": "Met Kinase % Inhibition (P.130)", "value": 48.3, "unit": "%"}]}, {"smiles": "O=C1Nc2ccc(CCCl)cc2C1=Cc1ccccc1C(F)(F)F", "note": "[10736/G03]", "values": [{"measurement": "Met Kinase % Inhibition (P.130)", "value": 0.6, "unit": "%"}]}, {"smiles": "Cc1cccc(C=C2C(=O)Nc3ccc(CCCl)cc32)c1", "note": "[10736/G04]", "values": [{"measurement": "Met Kinase % Inhibition (P.130)", "value": "−6.6", "unit": "%"}]}, {"smiles": "Cc1ccc(C=C2C(=O)Nc3ccc(CCCl)cc32)cc1", "note": "[10736/G05]", "values": [{"measurement": "Met Kinase % Inhibition (P.130)", "setting": "protocol P.130", "value": "0.0% and 1.3%"}]}, {"smiles": "O=C1Nc2ccc(CCCl)cc2C1=Cc1cccc(F)c1", "note": "[10736/G07]", "values": [{"measurement": "Met Kinase % Inhibition (P.130)", "setting": "protocol P.130", "value": "−0.2", "unit": "%"}]}, {"smiles": "O=C1Nc2ccc(CCCl)cc2C1=Cc1ccccc1F", "note": "[10736/G08]", "values": [{"measurement": "Met Kinase % Inhibition (P.130)", "setting": "protocol P.130", "value": 6.6, "unit": "%"}]}, {"smiles": "CCc1ccc(C=C2C(=O)Nc3ccc(CCCl)cc32)cc1", "note": "[10736/G09]", "values": [{"measurement": "Met Kinase % Inhibition (P.130)", "setting": "protocol P.130", "value": 16.2, "unit": "%"}]}, {"smiles": "COc1cccc(C=C2C(=O)Nc3ccc(CCCl)cc32)c1", "note": "[10736/G10]", "values": [{"measurement": "Met Kinase % Inhibition (P.130)", "setting": "protocol P.130", "value": 5.7, "unit": "%"}]}, {"smiles": "O=C1Nc2ccc(CCCl)cc2C1=Cc1ccccc1Cl", "note": "[10736/G11]", "values": [{"measurement": "Met Kinase % Inhibition (P.130)", "setting": "protocol P.130", "value": 10.3, "unit": "%"}]}, {"smiles": "Cc1c(Br)cc(Br)c2c1C(=Cc1ccc(Cl)cc1)C(=O)N2", "note": "[10736/H02]", "values": [{"measurement": "Met Kinase % Inhibition (P.130)", "setting": "protocol P.130", "value": 62.8, "unit": "%"}]}, {"smiles": "Cc1c(Br)cc(Br)c2c1C(=Cc1ccccc1C(F)(F)F)C(=O)N2", "note": "[10736/H03]", "values": [{"measurement": "Met Kinase % Inhibition (P.130)", "setting": "protocol P.130", "value": 27.7, "unit": "%"}]}, {"smiles": "Cc1cccc(C=C2C(=O)Nc3c(Br)cc(Br)c(C)c32)c1", "note": "[10736/H04]", "values": [{"measurement": "Met Kinase % Inhibition (P.130)", "setting": "protocol P.130", "value": 27.2, "unit": "%"}]}, {"smiles": "Cc1ccc(C=C2C(=O)Nc3c(Br)cc(Br)c(C)c32)cc1", "note": "[10736/H05]", "values": [{"measurement": "Met Kinase % Inhibition (P.130)", "setting": "protocol P.130", "value": 21.1, "unit": "%"}]}, {"smiles": "Cc1c(Br)cc(Br)c2c1C(=Cc1cccc(Cl)c1)C(=O)N2", "note": "[10736/H06]", "values": [{"measurement": "Met Kinase % Inhibition (P.130)", "setting": "protocol P.130", "value": 27.4, "unit": "%"}]}]}
